Key:
[1] = molecular target: T1, full-length human aurora-A (Homo sapiens, UniProt O14965); assay: In vitro kinase assay (EMD Millipore KinaseProfiler); type: biochemical; settings: 10 μM γ-33P-ATP, 200 μM Kemptide, 8 doses in duplicate
T1 construct: Full-length human aurora-A was assayed; purchased EMD Millipore KinaseProfiler service
Procedure: (§1) In vitro kinase inhibition assays were then performed as follows. Incorporation of radioactivity from 10 μM γ-^33P-ATP was measured across 8 doses in duplicate by the EMD Millipore KinaseProfiler service (Billerica, Mass.) under published standard conditions with […]. Full-length human aurora-A was assayed with 200 μM LRRASLG (Kemptide); full-length human aurora-B with 30 μM […] (SEQ ID NO:5); and full-length human aurora-C with 30 μM […] (SEQ ID NO:6). IC50 values were modeled using least-squares and variable slope with Prism 6.0 software (GraphPad, San Diego, Calif.).

[2] = molecular target: T2, full-length human aurora-B (Homo sapiens, UniProt Q96GD4); assay: as above; type: biochemical; settings: 10 μM γ-33P-ATP, 30 μM AKRRRLSSLRA, 8 doses in duplicate
T2 construct: purchased EMD Millipore KinaseProfiler service
T2 sequence (Q96GD4 whole entry): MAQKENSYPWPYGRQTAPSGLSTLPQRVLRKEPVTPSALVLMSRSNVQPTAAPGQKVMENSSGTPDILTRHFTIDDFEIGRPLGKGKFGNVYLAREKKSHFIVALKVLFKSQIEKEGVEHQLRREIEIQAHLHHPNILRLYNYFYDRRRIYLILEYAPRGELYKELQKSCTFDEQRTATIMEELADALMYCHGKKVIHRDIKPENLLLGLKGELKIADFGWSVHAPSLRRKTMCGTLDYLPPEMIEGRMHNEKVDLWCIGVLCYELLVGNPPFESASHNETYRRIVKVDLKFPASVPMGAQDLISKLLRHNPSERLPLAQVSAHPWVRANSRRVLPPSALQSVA
Procedure: as §1

[3] = molecular target: T3, full-length human aurora-C (Homo sapiens, UniProt Q9UQB9); assay: as above; type: biochemical; settings: 10 μM γ-33P-ATP, 30 μM AKRRRLSSLRA, 8 doses in duplicate
T3 construct: purchased EMD Millipore KinaseProfiler service
T3 sequence (Q9UQB9 whole entry): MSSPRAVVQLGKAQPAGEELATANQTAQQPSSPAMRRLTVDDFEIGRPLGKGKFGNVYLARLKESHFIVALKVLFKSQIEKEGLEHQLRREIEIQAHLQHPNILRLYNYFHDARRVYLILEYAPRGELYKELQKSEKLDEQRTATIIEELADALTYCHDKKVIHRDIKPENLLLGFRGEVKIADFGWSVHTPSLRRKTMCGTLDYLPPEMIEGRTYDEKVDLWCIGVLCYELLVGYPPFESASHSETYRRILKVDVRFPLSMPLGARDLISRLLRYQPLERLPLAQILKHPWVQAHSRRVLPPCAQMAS
Procedure: as §1

[4] = molecular target: T4, ABL1(T315I)---phosphorylated (Homo sapiens, UniProt P00519, T315I); assay: DiscoveRx KinomeScan binding; settings: Entrez ABL1
T4 construct: purchased DiscoveRx (KINOMEscan scanEDGE panel)

AKT2 = molecular target: T5, AKT2 (Homo sapiens, UniProt P31751); assay: DiscoveRx KinomeScan binding
T5 construct: purchased DiscoveRx (KINOMEscan scanEDGE panel)
T5 sequence (P31751 whole entry): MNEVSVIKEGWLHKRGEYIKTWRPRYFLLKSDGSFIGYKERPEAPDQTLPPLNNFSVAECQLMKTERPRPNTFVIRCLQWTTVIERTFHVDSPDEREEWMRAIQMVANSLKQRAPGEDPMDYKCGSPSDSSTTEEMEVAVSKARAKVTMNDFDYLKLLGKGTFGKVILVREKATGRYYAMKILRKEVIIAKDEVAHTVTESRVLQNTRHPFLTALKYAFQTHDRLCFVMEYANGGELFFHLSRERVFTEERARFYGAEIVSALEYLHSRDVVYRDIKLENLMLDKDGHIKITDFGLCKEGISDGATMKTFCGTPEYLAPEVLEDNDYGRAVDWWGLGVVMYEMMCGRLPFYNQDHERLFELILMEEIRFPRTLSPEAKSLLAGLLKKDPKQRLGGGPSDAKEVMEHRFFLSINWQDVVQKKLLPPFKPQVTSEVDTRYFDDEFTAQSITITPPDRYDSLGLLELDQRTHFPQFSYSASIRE

AURKC = molecular target: T6, AURKC (Homo sapiens, UniProt Q9UQB9); assay: DiscoveRx KinomeScan binding
T6 construct: purchased DiscoveRx (KINOMEscan; added to the scanEDGE panel)
T6 sequence (Q9UQB9 whole entry): as the sequence (Q9UQB9 whole entry) above

AXL = molecular target: T7, AXL (Homo sapiens, UniProt P30530); assay: DiscoveRx KinomeScan binding
T7 construct: purchased DiscoveRx (KINOMEscan scanEDGE panel)

BRAF(V600E) = molecular target: T8, BRAF(V600E) (Homo sapiens, UniProt P15056, V600E); assay: DiscoveRx KinomeScan binding
T8 construct: purchased DiscoveRx (KINOMEscan scanEDGE panel)

CDK3 = molecular target: T9, CDK3 (Homo sapiens, UniProt Q00526); assay: DiscoveRx KinomeScan binding
T9 construct: purchased DiscoveRx (KINOMEscan scanEDGE panel)
T9 sequence (Q00526 whole entry): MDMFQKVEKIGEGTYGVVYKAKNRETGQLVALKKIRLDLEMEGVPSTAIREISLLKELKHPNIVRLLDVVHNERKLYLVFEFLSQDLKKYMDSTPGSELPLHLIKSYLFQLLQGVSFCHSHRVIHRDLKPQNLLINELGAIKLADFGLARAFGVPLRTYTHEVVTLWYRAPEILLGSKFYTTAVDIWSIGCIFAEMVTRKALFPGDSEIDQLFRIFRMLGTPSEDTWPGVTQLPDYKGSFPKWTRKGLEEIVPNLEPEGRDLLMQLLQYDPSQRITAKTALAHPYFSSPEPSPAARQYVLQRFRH

CHEK1 = molecular target: T10, CHEK1 (Homo sapiens, UniProt O14757); assay: DiscoveRx KinomeScan binding
T10 construct: purchased DiscoveRx scanEDGE panel
T10 sequence (O14757 whole entry): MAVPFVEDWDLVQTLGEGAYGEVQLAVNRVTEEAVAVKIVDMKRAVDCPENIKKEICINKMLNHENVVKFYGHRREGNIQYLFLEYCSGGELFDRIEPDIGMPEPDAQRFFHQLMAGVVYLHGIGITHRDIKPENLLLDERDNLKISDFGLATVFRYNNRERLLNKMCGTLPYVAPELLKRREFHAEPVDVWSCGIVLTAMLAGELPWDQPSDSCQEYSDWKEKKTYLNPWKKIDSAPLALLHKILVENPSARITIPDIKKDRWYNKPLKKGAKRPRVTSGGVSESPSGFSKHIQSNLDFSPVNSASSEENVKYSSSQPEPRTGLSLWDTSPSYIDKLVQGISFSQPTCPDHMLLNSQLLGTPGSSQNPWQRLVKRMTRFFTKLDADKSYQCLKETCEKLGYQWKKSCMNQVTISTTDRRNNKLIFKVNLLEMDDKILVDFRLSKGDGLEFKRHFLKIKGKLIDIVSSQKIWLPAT

CSF1R = molecular target: T11, CSF1R (Homo sapiens, UniProt P07333); assay: DiscoveRx KinomeScan binding
T11 construct: purchased DiscoveRx scanEDGE panel

DCAMKL1 = molecular target: T12, DCAMKL1 (Homo sapiens, UniProt O15075); assay: DiscoveRx KinomeScan binding; settings: Entrez DCLK1
T12 construct: purchased DiscoveRx scanEDGE panel

EPHA2 = molecular target: T13, EPHA2 (Homo sapiens, UniProt P29317); assay: DiscoveRx KinomeScan binding
T13 construct: purchased DiscoveRx scanEDGE panel

ERBB2 = molecular target: T14, ERBB2 (Homo sapiens, UniProt P04626); assay: DiscoveRx KinomeScan binding
T14 construct: purchased DiscoveRx scanEDGE panel

ERBB4 = molecular target: T15, ERBB4 (Homo sapiens, UniProt Q15303); assay: DiscoveRx KinomeScan binding
T15 construct: purchased DiscoveRx scanEDGE panel

ERK1 = molecular target: T16, ERK1 (Homo sapiens, UniProt P27361); assay: DiscoveRx KinomeScan binding; settings: Entrez MAPK3
T16 construct: purchased DiscoveRx scanEDGE panel

FLT3 = molecular target: T17, FLT3 (Homo sapiens, UniProt P36888); assay: DiscoveRx KinomeScan binding
T17 construct: purchased DiscoveRx scanEDGE panel

IKK---alpha = molecular target: T18, IKK---alpha (Homo sapiens, UniProt O15111); assay: DiscoveRx KinomeScan binding; settings: Entrez CHUK
T18 construct: purchased DiscoveRx scanEDGE panel

[5] = molecular target: T19, JAK3(JH1domain---catalytic) (Homo sapiens, UniProt P52333); assay: DiscoveRx KinomeScan binding
T19 construct: JAK3(JH1domain---catalytic); purchased DiscoveRx scanEDGE panel

JNK2 = molecular target: T20, JNK2 (Homo sapiens, UniProt P45984); assay: DiscoveRx KinomeScan binding; settings: Entrez MAPK9
T20 construct: purchased DiscoveRx scanEDGE panel (KinomeScan)
T20 sequence (P45984 whole entry): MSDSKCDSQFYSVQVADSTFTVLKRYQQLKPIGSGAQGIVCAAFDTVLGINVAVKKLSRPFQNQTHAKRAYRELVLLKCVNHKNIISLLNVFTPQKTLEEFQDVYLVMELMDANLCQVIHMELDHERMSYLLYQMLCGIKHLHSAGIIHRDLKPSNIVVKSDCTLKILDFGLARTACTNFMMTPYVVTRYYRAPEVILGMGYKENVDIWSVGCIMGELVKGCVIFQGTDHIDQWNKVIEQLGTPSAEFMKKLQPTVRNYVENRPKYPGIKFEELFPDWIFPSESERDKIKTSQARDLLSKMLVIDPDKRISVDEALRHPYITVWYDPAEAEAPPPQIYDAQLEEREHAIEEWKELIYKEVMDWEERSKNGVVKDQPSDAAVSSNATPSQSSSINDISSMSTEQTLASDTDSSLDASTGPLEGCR

KIT(D816V) = molecular target: T21, KIT(D816V) (Homo sapiens, UniProt P10721, D816V); assay: DiscoveRx KinomeScan binding
T21 construct: purchased DiscoveRx scanEDGE panel (KinomeScan)

LKB1 = molecular target: T22, LKB1 (Homo sapiens, UniProt Q15831); assay: DiscoveRx KinomeScan binding; settings: Entrez STK11
T22 construct: purchased DiscoveRx scanEDGE panel (KinomeScan)

PAK4 = molecular target: T23, PAK4 (Homo sapiens, UniProt O96013); assay: DiscoveRx KinomeScan binding
T23 construct: purchased DiscoveRx scanEDGE panel (KinomeScan)

PIK3C2B = molecular target: T24, PIK3C2B (Homo sapiens, UniProt O00750); assay: DiscoveRx KinomeScan binding
T24 construct: purchased DiscoveRx scanEDGE panel (KinomeScan)

PIK3CA = molecular target: T25, PIK3CA (Homo sapiens, UniProt P42336); assay: DiscoveRx KinomeScan binding
T25 construct: purchased DiscoveRx scanEDGE panel

PIK3CG = molecular target: T26, PIK3CG (Homo sapiens, UniProt P48736); assay: DiscoveRx KinomeScan binding
T26 construct: purchased DiscoveRx scanEDGE panel
T26 sequence (P48736 whole entry): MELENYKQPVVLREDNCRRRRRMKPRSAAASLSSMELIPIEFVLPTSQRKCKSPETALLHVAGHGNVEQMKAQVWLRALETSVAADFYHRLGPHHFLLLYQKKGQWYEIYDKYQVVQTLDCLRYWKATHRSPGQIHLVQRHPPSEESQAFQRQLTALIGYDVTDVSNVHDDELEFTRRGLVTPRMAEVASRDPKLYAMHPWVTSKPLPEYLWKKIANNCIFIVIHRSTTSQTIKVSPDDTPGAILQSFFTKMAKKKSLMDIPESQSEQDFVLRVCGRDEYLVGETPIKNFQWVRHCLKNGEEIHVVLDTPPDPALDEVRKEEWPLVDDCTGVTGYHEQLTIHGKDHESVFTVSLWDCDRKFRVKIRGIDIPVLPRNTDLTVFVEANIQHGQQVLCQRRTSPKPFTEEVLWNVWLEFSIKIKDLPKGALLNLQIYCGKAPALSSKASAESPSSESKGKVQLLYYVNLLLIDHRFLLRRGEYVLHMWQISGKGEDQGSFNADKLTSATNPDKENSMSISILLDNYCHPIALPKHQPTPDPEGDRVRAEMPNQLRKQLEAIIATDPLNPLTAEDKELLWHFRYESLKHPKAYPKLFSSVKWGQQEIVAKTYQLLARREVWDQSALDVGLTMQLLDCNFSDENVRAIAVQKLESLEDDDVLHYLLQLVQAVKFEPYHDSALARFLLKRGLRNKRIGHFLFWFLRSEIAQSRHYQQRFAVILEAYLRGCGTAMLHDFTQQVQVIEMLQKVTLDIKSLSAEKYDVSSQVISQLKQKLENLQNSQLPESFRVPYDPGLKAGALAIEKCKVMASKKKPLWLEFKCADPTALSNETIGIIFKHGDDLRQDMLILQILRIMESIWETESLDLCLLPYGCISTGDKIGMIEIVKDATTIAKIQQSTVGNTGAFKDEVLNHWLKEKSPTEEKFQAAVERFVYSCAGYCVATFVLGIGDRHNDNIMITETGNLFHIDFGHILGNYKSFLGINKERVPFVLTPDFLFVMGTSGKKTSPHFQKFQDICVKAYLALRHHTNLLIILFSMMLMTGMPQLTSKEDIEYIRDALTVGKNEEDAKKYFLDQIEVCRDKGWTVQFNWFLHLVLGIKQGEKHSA

PIM3 = molecular target: T27, PIM3 (Homo sapiens, UniProt Q86V86); assay: DiscoveRx KinomeScan binding
T27 construct: purchased DiscoveRx scanEDGE panel

PKAC---alpha = molecular target: T28, PKAC---alpha (Homo sapiens, UniProt P17612); assay: DiscoveRx KinomeScan binding; settings: Entrez PRKACA
T28 construct: purchased DiscoveRx scanEDGE panel

RET = molecular target: T29, RET (Homo sapiens, UniProt P07949); assay: DiscoveRx KinomeScan binding
T29 construct: purchased DiscoveRx scanEDGE panel

TGFBR1 = molecular target: T30, TGFBR1 (Homo sapiens, UniProt P36897); assay: DiscoveRx KinomeScan binding
T30 construct: purchased DiscoveRx scanEDGE panel

TRKA = molecular target: T31, TRKA (Homo sapiens, UniProt P04629); assay: DiscoveRx KinomeScan binding; settings: Entrez NTRK1
T31 construct: purchased DiscoveRx scanEDGE panel
T31 sequence (P04629 33-796): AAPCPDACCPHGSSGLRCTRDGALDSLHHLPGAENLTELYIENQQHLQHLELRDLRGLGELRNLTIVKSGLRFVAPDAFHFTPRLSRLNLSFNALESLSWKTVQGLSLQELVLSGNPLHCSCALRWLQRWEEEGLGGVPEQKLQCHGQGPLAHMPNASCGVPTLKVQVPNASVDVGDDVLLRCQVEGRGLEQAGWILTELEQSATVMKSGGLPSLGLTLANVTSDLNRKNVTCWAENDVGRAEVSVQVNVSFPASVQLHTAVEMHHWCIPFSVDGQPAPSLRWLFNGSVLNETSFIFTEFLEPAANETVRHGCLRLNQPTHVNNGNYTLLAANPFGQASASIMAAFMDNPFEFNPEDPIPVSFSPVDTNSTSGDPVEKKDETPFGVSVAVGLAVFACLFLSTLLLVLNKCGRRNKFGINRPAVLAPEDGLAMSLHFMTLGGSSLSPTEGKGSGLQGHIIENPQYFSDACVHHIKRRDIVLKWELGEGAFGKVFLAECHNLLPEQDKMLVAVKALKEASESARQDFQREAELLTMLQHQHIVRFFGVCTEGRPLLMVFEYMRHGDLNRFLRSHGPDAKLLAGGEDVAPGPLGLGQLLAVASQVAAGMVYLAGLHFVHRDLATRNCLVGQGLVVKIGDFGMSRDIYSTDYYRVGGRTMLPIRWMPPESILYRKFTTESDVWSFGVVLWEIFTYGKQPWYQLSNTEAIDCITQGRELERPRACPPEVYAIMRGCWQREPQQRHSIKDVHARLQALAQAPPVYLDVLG

ULK2 = molecular target: T32, ULK2 (Homo sapiens, UniProt Q8IYT8); assay: DiscoveRx KinomeScan binding
T32 construct: purchased DiscoveRx scanEDGE panel

T1 sequence (O14965 whole entry): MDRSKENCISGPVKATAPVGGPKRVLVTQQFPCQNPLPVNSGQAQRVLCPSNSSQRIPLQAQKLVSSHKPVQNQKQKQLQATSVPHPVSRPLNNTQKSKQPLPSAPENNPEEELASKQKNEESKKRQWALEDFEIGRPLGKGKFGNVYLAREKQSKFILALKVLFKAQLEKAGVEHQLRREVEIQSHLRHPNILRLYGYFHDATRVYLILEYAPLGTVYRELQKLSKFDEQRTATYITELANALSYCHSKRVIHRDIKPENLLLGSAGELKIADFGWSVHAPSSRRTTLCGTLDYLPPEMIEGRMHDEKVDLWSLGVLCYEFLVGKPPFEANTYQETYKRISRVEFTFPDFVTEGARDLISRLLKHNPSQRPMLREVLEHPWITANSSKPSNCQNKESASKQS

Work on COc1ccc(NC(=O)Nc2ccc3c(c2)C(=O)N([C@@H](C)CO)C[C@H](C)[C@H](CN(C)Cc2ccc4c(c2)OCO4)O3)cc1 [BRD-7880] yielded an IC50 [1] of 2150 nM, an IC50 [2] of 7 nM and an IC50 [3] of 12 nM. For the same compound, the “Percent Control” value [4] was 44%, the “Percent Control” value (AKT2) was 80% and the “binding to aurora kinase C” value (AURKC) was 3 % of control. For the same compound, the “Percent Control” value (AURKC; AURKC) was 3%, the “Percent Control” value (AXL) was 84% and the “Percent Control” value (BRAF(V600E)) was 65%. The “Percent Control” value (CDK3) was 76%, the “Percent Control” value (CHEK1) was 100% and the “Percent Control” value (CSF1R) was 100%. The “Percent Control” value (DCAMKL1) was 37%, the “Percent Control” value (EPHA2) was 86% and the “Percent Control” value (ERBB2) was 100%. The “Percent Control” value (ERBB4) was 97%, the “Percent Control” value (ERK1) was 92% and the “Percent Control” value (FLT3) was 65%. For the same compound, the “Percent Control” value (IKK---alpha) was 58%, the “Percent Control” value [5] was 66% and the “Percent Control” value (JNK2) was 89%. For the same compound, the “Percent Control” value (KIT(D816V)) was 72%, the “Percent Control” value (LKB1) was 39% and the “Percent Control” value (PAK4) was 100%. The “Percent Control” value (PIK3C2B) was 96%, the “Percent Control” value (PIK3CA) was 74% and the “Percent Control” value (PIK3CG) was 100%. The “Percent Control” value (PIM3) was 72%, the “Percent Control” value (PKAC---alpha) was 69% and the “Percent Control” value (RET) was 100%. The “Percent Control” value (TGFBR1) was 100%, the “Percent Control” value (TRKA) was 84% and the “Percent Control” value (ULK2) was 100%.
